# Measurements from PMC9706024, “Chromenone Derivatives as Monoamine Oxidase Inhibitors from Marine-Derived MAR4 Clade Streptomyces sp. CNQ-031” (Journal of Microbiology and Biotechnology, 2021).
# “Also recorded” adds a separate entry of the source.
# How the values were obtained:
# [1] = molecular target: T1, Recombinant human MAO-A (Homo sapiens, UniProt P21397); experiment: biochemical; assay type: biochemical; details: for remaining activity at 10 µM / IC50: means ± SD of duplicate experiments; for remaining activity at 10 µM: read-out: Residual activity at 10 µM (%) MAO-A; for SI (selectivity index): ratio of high IC50/low IC50 for MAO inhibition (compound 1: MAO-A versus MAO-B; compound 2: MAO-B versus MAO-A)
# T1 construct: purchased Sigma-Aldrich (USA)
# T1 sequence (P21397 1-527): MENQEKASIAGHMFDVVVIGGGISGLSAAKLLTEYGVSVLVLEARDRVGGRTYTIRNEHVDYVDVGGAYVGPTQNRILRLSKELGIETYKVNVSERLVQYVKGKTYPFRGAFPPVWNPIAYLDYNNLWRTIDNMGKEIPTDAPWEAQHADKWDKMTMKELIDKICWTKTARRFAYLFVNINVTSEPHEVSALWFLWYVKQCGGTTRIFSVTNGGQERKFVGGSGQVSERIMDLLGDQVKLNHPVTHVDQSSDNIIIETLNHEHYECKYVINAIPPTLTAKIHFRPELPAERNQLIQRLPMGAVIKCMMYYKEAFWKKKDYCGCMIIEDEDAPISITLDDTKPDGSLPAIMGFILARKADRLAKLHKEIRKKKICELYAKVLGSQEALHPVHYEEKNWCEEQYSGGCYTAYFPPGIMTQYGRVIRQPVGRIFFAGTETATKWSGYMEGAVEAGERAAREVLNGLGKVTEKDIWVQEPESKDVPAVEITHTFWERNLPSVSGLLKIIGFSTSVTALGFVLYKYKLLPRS
# Protocol: (§1) All other chemicals were of reagent grade.
# (§2) MAO-A and MAO-B inhibitory activities were determined using a continuous spectrophotometric method as described previously. […] AChE activities were assayed as described by Ellman et al., with slight modification. The inhibitory activities of AChE and BChE were measured after the enzyme was preincubated with inhibitors for 15 min and before adding DTNB and the substrate (ATCI and BTCI, respectively). […] Reaction rates were expressed as changes in absorbance per minute.
# [2] = molecular target: T2, human MAO-B (Homo sapiens, UniProt P27338); experiment: biochemical; assay type: biochemical; details: for remaining activity at 10 µM / IC50: means ± SD of duplicate experiments; for remaining activity at 10 µM: read-out: Residual activity at 10 µM (%) MAO-B
# T2 construct: purchased Sigma-Aldrich (USA)
# T2 sequence (P27338 1-520): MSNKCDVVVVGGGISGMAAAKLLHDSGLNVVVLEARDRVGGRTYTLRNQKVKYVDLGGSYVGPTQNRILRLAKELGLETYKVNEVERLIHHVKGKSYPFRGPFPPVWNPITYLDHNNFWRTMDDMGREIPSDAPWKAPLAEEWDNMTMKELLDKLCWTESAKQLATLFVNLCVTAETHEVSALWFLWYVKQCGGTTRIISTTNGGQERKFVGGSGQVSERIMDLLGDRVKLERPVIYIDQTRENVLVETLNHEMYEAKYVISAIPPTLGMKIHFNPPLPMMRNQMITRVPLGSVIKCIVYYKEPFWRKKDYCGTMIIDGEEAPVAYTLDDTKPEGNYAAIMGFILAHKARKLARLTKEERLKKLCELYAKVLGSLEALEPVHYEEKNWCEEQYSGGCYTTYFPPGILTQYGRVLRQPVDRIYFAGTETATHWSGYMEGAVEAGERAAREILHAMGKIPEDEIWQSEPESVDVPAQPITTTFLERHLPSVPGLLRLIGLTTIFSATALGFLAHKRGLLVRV
# Protocol: as §1, §2
# [3] = molecular target: T1, Recombinant human MAO-A; experiment: MAO-A inhibition kinetics (Lineweaver-Burk and secondary plots); assay type: biochemical; details: for Mode of MAO-A inhibition: Lineweaver-Burk plots; for Ki: secondary plots of Lineweaver-Burk slopes, kynuramine 0.0075-0.12 mM
# Protocol: (§3) Kinetic parameters, inhibition types, and […] (Ki) values of potent MAO-A and MAO-B inhibitors (i.e., compound 1 for MAO-A; compound 2 for MAO-A and MAO-B) were determined, as previously described. […]; Inhibitory patterns and Ki values were determined using Lineweaver-Burk plots and secondary plots of their slopes.
# (§4) Modes of MAO-A inhibition by compound 1 and modes of MAO-A and MAO-B inhibition by compound 2 were investigated using Lineweaver-Burk plots. […].
# (§5) Fig. 3 Lineweaver-Burk plots of monoamine oxidase (MAO)-A inhibition by compound 1 (A) and of MAOA and MAO-B inhibition by compound 2 (C and E for respective MOA isoforms) as well as their respective secondary plots, as slopes of Lineweaver-Burk plots vs. inhibitor concentrations (B, D, and F). […]. […] The initial velocity was expressed as an increase in absorbance per min.
# [4] = molecular target: T3, AChE from Electrophorus electricus (Electrophorus electricus, UniProt O42275); experiment: biochemical; details: means ± SD of duplicate experiments; for remaining activity at 10 µM: read-out: Residual activity at 10 µM (%) AChE
# T3 construct: AChE from Electrophorus electricus; purchased Sigma-Aldrich (USA)
# [5] = molecular target: T1, Recombinant human MAO-A; experiment: Reversibility of MAO-A inhibition by dialysis; assay type: biochemical; details: for Reversibility of MAO-A inhibition: dialysis; for Relative activity of MAO-A, dialyzed (AD) / Relative activity of MAO-A, undialyzed (AU): inhibitor at twice the IC50, preincubated 30 min; for Relative activity of MAO-A, dialyzed (AD): after dialysis
# Protocol: (§6) After the compounds or reference inhibitors were preincubated with MAOs for 30 min, residual activities for undialyzed and dialyzed samples were measured. The relative values for undialyzed (AU) and dialyzed (AD) activities were then calculated, and the reversibilities were determined by comparing the AU and AD values of the inhibitors with those of the references.
# (§7) Results are the averages of experiments performed in duplicate.
# [6] = molecular target: T4, BChE from equine serum (Equus caballus, UniProt P81908); experiment: biochemical; details: means ± SD of duplicate experiments, read-out: Residual activity at 10 µM (%) BChE
# T4 construct: BChE from equine serum; purchased Sigma-Aldrich (USA); host or cells: equine serum
# Protocol: as §1, §2
# [7] = molecular target: T5, BACE-1 (Homo sapiens, UniProt P56817); experiment: BACE-1 Activity Detection Kit, fluorescence assay; assay type: biochemical; details: means ± SD of duplicate experiments, read-out: Residual activity at 10 µM (%) BACE-1
# T5 construct: purchased Sigma-Aldrich (USA)
# [8] = molecular target: T2, human MAO-B; experiment: MAO-B inhibition kinetics (Lineweaver-Burk and secondary plots); assay type: biochemical
# Protocol: as §3, §4, §5
# [9] = molecular target: T2, human MAO-B; experiment: Reversibility of MAO-B inhibition by dialysis; assay type: biochemical
# Protocol: as §6, §7
# [10] = test system: MAO-B; details: cited from earlier work
# [11] = test system: MAO-A; details: cited from earlier work
# T3 sequence (O42275 24-633): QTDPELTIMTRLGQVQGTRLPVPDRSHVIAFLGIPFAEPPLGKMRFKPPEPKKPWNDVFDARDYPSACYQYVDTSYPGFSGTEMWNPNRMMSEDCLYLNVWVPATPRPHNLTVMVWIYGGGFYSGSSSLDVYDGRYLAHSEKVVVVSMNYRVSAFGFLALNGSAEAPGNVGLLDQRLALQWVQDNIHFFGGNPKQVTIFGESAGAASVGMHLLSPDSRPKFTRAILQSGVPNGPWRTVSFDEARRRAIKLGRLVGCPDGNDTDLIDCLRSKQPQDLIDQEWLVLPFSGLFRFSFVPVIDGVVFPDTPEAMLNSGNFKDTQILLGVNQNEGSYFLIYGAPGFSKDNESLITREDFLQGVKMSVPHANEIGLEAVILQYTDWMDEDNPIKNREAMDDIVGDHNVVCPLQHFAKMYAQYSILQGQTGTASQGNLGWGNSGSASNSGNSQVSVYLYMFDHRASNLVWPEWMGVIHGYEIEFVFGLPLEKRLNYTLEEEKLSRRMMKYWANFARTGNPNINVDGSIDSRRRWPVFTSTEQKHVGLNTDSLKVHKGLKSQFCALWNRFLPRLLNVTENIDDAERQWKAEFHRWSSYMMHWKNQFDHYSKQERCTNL
# T4 sequence (P81908 whole entry): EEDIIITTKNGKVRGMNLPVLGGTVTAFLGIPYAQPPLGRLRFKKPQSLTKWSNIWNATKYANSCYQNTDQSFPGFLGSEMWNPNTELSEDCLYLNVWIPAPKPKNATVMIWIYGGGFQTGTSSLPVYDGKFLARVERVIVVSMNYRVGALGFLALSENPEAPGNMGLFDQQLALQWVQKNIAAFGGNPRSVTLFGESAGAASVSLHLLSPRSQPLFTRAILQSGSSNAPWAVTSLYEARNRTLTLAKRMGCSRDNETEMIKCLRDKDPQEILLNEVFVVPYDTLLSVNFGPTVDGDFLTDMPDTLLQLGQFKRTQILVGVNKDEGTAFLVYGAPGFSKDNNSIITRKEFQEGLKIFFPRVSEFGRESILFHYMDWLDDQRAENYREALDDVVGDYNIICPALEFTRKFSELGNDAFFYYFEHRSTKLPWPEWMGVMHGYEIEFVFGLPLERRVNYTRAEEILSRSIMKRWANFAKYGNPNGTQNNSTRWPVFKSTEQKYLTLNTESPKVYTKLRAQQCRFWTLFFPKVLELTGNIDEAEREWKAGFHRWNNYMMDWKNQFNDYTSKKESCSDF
# T5 sequence (P56817 46-501, species assumed): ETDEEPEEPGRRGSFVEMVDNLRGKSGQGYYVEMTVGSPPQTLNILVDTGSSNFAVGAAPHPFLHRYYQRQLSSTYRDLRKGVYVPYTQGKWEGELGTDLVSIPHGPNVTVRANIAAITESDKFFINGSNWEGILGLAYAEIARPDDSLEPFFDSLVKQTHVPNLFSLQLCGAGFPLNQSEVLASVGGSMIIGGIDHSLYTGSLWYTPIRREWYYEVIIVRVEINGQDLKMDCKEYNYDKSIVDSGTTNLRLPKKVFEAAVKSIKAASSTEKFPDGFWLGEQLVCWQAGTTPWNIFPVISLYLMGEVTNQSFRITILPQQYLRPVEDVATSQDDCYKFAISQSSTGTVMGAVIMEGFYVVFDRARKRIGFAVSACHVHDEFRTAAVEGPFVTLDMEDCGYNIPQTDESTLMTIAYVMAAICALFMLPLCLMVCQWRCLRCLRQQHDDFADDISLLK
compound,measurement,setting,value
"CC(C)c1cc(=O)c2c(O)cc(O)cc2o1 [Compound 1, 5,7-dihydroxy-2-isopropyl-4H-chromen-4-one]",remaining activity at 10 µM,[1],25.4 ± 2.24%
same,IC50,[1],2.7 ± 0.034 µM
same,SI (selectivity index),[1],10.0
same,remaining activity at 10 µM,[2],71.5 ± 5.45%
same,IC50,[2],27 ± 2.78 µM
same,Mode of MAO-A inhibition,[3],competitive inhibitor
same,Ki,[3],0.94 ± 0.28 µM
same,remaining activity at 10 µM,[4],70.5 ± 6.31%
same,IC50,[4],31.7 ± 2.39 µM
same,Reversibility of MAO-A inhibition,[5],reversible inhibitor
same,"Relative activity of MAO-A, dialyzed (AD)",[5],90.9%
same,"Relative activity of MAO-A, undialyzed (AU)",[5],35.5%
same,remaining activity at 10 µM,[6],80.7 ± 3.46%
same,remaining activity at 10 µM,[7],85.8 ± 0.28%
"CCC(C)c1cc(=O)c2c(O)cc(O)cc2o1 (stereo not shown) [Compound 2, 5,7-dihydroxy-2-(1-methylpropyl)-4H-chromen-4-one]",Mode of MAO-B inhibition,[8]; Lineweaver-Burk plots,competitive inhibitor
same,Ki,"[8]; secondary plots of Lineweaver-Burk slopes, benzylamine 0.03-0.6 mM",1.89 ± 0.014 µM
same,remaining activity at 10 µM,[1],37.8 ± 0.82%
same,IC50,[1],6.92 ± 0.067 µM
same,SI (selectivity index),[1],2.02
same,remaining activity at 10 µM,[2],34.4 ± 7.95%
same,IC50,[2],3.42 ± 1.47 µM
same,Reversibility of MAO-B inhibition,[9]; dialysis,reversible inhibitor
same,"Relative activity of MAO-B, dialyzed (AD)","[9]; inhibitor at twice the IC50, preincubated 30 min, after dialysis",76.7%
same,"Relative activity of MAO-B, undialyzed (AU)","[9]; inhibitor at twice the IC50, preincubated 30 min, undialyzed",34.8%
same,Mode of MAO-A inhibition,[3],competitive inhibitor
same,Ki,[3],3.57 ± 0.6 µM
same,remaining activity at 10 µM,[4],88.3 ± 2.54%
same,Reversibility of MAO-A inhibition,[5],reversible inhibitor
same,"Relative activity of MAO-A, dialyzed (AD)",[5],79.4%
same,"Relative activity of MAO-A, undialyzed (AU)",[5],35.6%
same,remaining activity at 10 µM,[6],96.4 ± 4.27%
same,remaining activity at 10 µM,[7],98.3 ± 0.27%
"COc1cccc2nc3ccccc3nc12 [Compound 3, 1-methoxyphenazine]",Inhibitory activity against MAO-A (in words),[1],did not inhibit; also recorded: little inhibitory activity
same,remaining activity at 10 µM,[1],93.6 ± 4.11%
same,Inhibitory activity against MAO-B (in words),[2],did not inhibit; also recorded: little inhibitory activity
same,remaining activity at 10 µM,[2],96.9 ± 2.65%
same,remaining activity at 10 µM,[4],83 ± 8.24%
same,remaining activity at 10 µM,[6],97 ± 2.72%
same,remaining activity at 10 µM,[7],79.9 ± 0.73%
"CC1CC(=O)c2c(O)cccc2O1 (stereo not shown) [HMC, 5-hydroxy-2-methyl-chroman-4-one]",IC50,[10],3.23 µM
same,IC50,[11],14 µM
O=c1oc2cc(O)ccc2c2ccc(O)cc12 [UroA],IC50,[11],5.88 µM
O=c1oc2cc(O)ccc2c2ccccc12 [UroB],IC50,[11],0.88 µM
O=c1oc2cc(O)ccc2c2cc(O)c(O)cc12 [Ur°C],IC50,[11],29.6 µM
COc1cc(O)c2c(=O)oc3cc(O)cc(C)c3c2c1 [alternariol monomethyl ether],IC50,[11],1.71 µM
CN1C(=N)N(C)/C(=C/c2c[nH]c3ccccc23)C1=O [aplysinopsin],IC50,[11],0.0056 µM
